The assay relates to OSW cell line. As to the kind of experiment: In vitro chemosensitivity (WST-1 cytotoxicity and proliferation assay). The format is cell-based. The note with it: Canis lupus familiaris; OSW canine T-cell lymphoma cell line, 72 h treatment, WST-1 assay; read-out: inhibitory concentration 50% (IC50). How it is done:
1-2×10^4 cells were seeded in 96-well plates in quadruplicates to a final volume of 200 μL/well. Cells were treated with doxorubicin hydrochloride (Ben Venue Laboratories-Novation, Bedford, Ohio, USA) or vincristine sulfate (Mayne Pharma Pty Ltd., Mulgrave VIC, Australia) at varying concentrations of drug or vehicle control for 72 h. Cell proliferation and viability was determined using the WST-1 assay, which quantifies the reduction of the tetrazolium salt WST-1 by mitochondria in viable cells. Cell number was determined from absorbance values of known numbers of cells. At various time intervals, 20 μl of WST-1 reagent (Roche, Indianapolis, Ind., USA) was added to each well and incubated for 2 to 4 h at 37° C. The absorbance of the reaction product, after background subtraction, was measured at 450 nm on a Spectra Max M2 plate reader (Molecular Devices, Sunnyvale, Calif., USA). Each experiment was repeated at least three times.
The in vitro chemosensitivity of the OSW cell line to doxorubicin and vincristine was determined.
(Tetrazolium assays rely on reduction of a dye to a coloured formazan, in cell work by metabolically active cells.)

The structures appear in SMILES notation. Structures can show the parent of a compound that is named as a salt.

On to `COc1cccc2c1C(=O)c1c(O)c3c(c(O)c1C2=O)C[C@@](O)(C(=O)CO)C[C@@H]3O[C@H]1C[C@H](N)[C@H](O)[C@H](C)O1` [Doxorubicin, doxorubicin hydrochloride], for which the IC50 came to 500 nM.
With `CC[C@]1(O)C[C@H]2CN(CCc3c([nH]c4ccccc34)[C@@](C(=O)OC)(c3cc4c(cc3OC)N(C=O)[C@H]3[C@@](O)(C(=O)OC)[C@H](OC(C)=O)[C@]5(CC)C=CCN6CC[C@]43[C@@H]65)C2)C1` [vincristine, vincristine sulfate], the IC50 came to 400 nM.

(Values after US7897150B1, “Canine lymphoma cell line and uses thereof” (The Ohio State University, priority 2007, dated 2011).)
